Measured values reported in US5475018A, “1,5-diphenyl pyrazole compounds for treatment of inflammation” (G. D. Searle & Co., priority 1993, dated 1995).

Assays:
[1] = Rat Carrageenan-induced Analgesia Test; assay type: in vivo, Male Sprague-Dawley rats; settings: oral, inhibition of hyperalgesic foot withdrawal, 3 h after carrageenan
Experimental: (§1) The carrageenan foot edema test was performed with materials, reagents and procedures essentially as described by Winter et al (Proc. Soc. Exp. Biol. Med., 111, 544 (1962)). Male Sprague-Dawley rats were selected in each group so that the average body weight was as close as possible. Rats were fasted with free access to water for over sixteen hours prior to the test. The rats were dosed orally (1 mL) with compounds suspended in vehicle containing 0.5% methylcellulose and 0.025% surfactant, or with vehicle alone. One hour later a subplantar injection of 0.1 mL of 1% solution of carrageenan/sterile 0.9% saline was administered and the volume of the injected foot was measured with a displacement plethysmometer connected to a pressure transducer with a digital indicator. Three hours after the injection of the carrageenan, the volume of the foot was again measured. The average foot swelling in a group of drug-treated animals was compared with that of a group of placebo-treated animals and the percentage inhibition of edema was determined (Otterness and Bliven, Laboratory Models for Testing NSAIDs, in Non-steroidal Anti-Inflammatory Drugs, (J. Lombardino, ed. 1985)).
The analgesia test using rat carrageenan was performed with materials, reagents and procedures essentially as described by Hargreaves et al (Pain, 32, 77 (1988)). […] The time until the rat withdraws its foot was then measured. […]

[2] = Rat Carrageenan Foot Pad Edema Test; assay type: in vivo, Male Sprague-Dawley rats; settings: oral, dosed 1 h before carrageenan, foot volume 3 h after carrageenan, vs placebo
Experimental: as §1

CS(=O)(=O)c1ccc(-n2nc(C(F)(F)F)cc2-c2ccc(F)cc2)cc1 [Example 1, 5-(4-Fluorophenyl)-1-[4-(methylsulfonyl)phenyl]-3-(trifluoromethyl)pyrazole]
ANALGESIA % Inhibition @ 20 mg/kg body weight [1]: 37% | RAT PAW EDEMA % Inhibition @ 10 mg/kg body weight [2]: 38%
